According to paper PMC4701221, “Novel Promising Estrogenic Receptor Modulators: Cytotoxic and Estrogenic Activity of Benzanilides and Dithiobenzanilides” (PLoS ONE, 2016):
Entries after “also recorded” stand apart in the source; their conditions may differ.

Tests used:
MTT assay, MCF-12A = type: cell-based; details: human, MCF-12A cells (non-tumorigenic breast epithelial), read-out: Cytotoxic activity IC50, MCF-12A
Method: (§1) The cell lines used in the cytotoxicity study, besides MCF-12A, were purchased from European Collection of Cell Culture (ECACC, Salisbury, UK): HEK293 (human embryonic kidney, ATTC no. CRL-1573), A549 (Human lung carcinoma, ECACC no. 86012804), CCD39Lu (Human lung fibroblasts, ECACC no. 90110512), MCF-7 (Human breast adenocarcinoma, ECACC no. 86012803) and MDA-MB-231 (Human breast adenocarcinoma ECACC no. 92020424). Cell lines were cultured in DMEM medium without phenol red and supplemented with 10% (v/v) FBS, 1% penicillin-streptomycin and 1% L-glutamine. MCF-12A (ATTC no. […]) was purchased from American Type Culture Collection (ATCC Manassas, VA 20110 USA). MCF-12A cells were kept in 1:1 mixture of Dulbecco’s modified Eagle’s medium and Ham’s F12 medium, 20 ng/ml human epidermal growth factor, 100 ng/ml cholera toxin, 0.01 mg/ml bovine insulin, 500 ng/ml hydrocortisone and 5% horse serum. All cell lines were cultured at 37°C, in a humidified atmosphere containing 5% CO2.
(§2) Compounds were dissolved in DMSO to the final concentration of […]. A549, CCD39Lu, MCF-7, MDA-MB-231 and MCF-12A cells were seeded in 96 wells plates at density 2x10^4 cells/well and incubated overnight as described above. Subsequently, cells were treated with tested compounds at concentrations: 100 μM; 50 μM; 25μM; 12.5μM; 6 μM; 3 μM; 1.5 μM. […] Cells were incubated 72 h at 37°C in a humidified atmosphere containing 5% CO2 in the cell culture media appropriate for each cell line. Then, the medium was aspirated and 170 μl MTT solution (5mg/ml) was added to each well. Plates were incubated for 2 hours at 37°C, and then plates were centrifuged at 1200 rpm for 3 minutes. The formazan crystals were dissolved in 200 μl DMSO and plates were further agitated on a plate shaker at 300–500 rpm for 10 minutes. Absorbance at 570 nm (with reference wavelenght 650 nm) was measured using a plate reader (Biotek Instruments, Elx-800). Cell viability was calculated as a percentage relative to the control.

MCF-7 cells [1] = experiment: MTT assay, MCF-7; type: cell-based, human; details: for IC50: Homo sapiens, MCF7, 72 h, estrogen dependent breast adenocarcinoma, read-out: Cytotoxic activity IC50, MCF-7; for Activity in MTT assay (in words), MCF-7: 72 h
Method: as §1, §2

MDA-MB-231 cells = experiment: MTT assay, MDA-MB-231; type: cell-based, human; details: for IC50: Homo sapiens, MDA-MB-231, 72 h, estrogen independent breast adenocarcinoma, read-out: Cytotoxic activity IC50, MDA-MB-231
Method: as §1, §2

MTT assay, CCD39Lu = type: cell-based; details: human, CCD39Lu cells (non-tumorigenic lung fibroblasts), read-out: Cytotoxic activity IC50, CCD39Lu
Method: as §1, §2

A549 cells = experiment: MTT assay, A549; type: cell-based; details: Homo sapiens, 72 h, lung adenocarcinoma, read-out: Cytotoxic activity IC50, A549
Method: as §1, §2

human ERα receptor = biological target: T1, human ERα receptor (Homo sapiens, UniProt P03372); experiment: Estrogen Receptor luciferase assay in HEK293 cells transfected with ERα; type: cell-based; details: HEK293 transfected with ERα and luciferase reporter, compared with estradiol, Fig 3A/3B
T1 construct: host or cells: HEK293
T1 sequence (P03372 1-595): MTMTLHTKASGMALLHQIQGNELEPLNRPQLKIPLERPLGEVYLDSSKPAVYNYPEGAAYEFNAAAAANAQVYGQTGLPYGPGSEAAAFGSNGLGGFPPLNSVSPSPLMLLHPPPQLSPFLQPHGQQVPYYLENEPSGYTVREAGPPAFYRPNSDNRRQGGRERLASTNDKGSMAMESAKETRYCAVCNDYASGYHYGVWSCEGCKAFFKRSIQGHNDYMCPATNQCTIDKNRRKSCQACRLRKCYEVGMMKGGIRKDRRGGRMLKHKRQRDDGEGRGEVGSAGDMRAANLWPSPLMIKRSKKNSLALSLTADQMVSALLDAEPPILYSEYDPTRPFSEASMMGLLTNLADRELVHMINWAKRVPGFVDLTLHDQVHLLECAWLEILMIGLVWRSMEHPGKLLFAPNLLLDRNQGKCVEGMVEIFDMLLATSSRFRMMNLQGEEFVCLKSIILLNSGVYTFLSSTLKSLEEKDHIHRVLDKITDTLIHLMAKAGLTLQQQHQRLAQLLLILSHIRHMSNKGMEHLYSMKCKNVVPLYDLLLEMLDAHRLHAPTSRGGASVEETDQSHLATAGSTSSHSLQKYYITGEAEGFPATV
Source text: To obtain a eukaryotic vector expressing only the ER-α nuclear receptor, a construct was designed by cloning a KpnI-BamHI fragment from plasmid pEGFP-C1-ERα containing the ERα coding sequence that includes a stop signal into the pEGFP-N3 plasmid (Clontech Laboratories, Palo Alto, CA) under the control of the CMV promoter. This construction was termed pEGFP-N-ERα, and although it encoded both human ERα receptor and GFP protein, only the former is expressed. For mock transfections, pEGFP-N3 plasmid was digested with BglII and NotI and religated after polishing DNA ends to remove GFP coding sequence. Plasmid sequence was confirmed by automatic sequencing. Prior to transfection, cells were seeded in 48 well plates at density of 1.5 x 10^4 cells/well and incubated for 24 h to reach a cell confluence of 80–90%. […] MCF-7 cells, which endogenously express ERα receptor, were transfected with p3xERRE/ERE-luciferase plus the pRLTK Renilla luciferase control plasmid (95:5). Firefly and Renilla luciferase activities were measured using the Dual Luciferase Assay System (Promega, Madison, WI, USA), following a standard protocol using a Sirius L luminometer (Berthold Technologies, Bad Wildbad, Germany). Data were expressed as relative changes in luciferase activity and normalized to 100%.

MCF-7 cells [2] = experiment: Sulphorodamine B assay, MCF-7; type: cell-based, human; details: 72 h, Fig 2
Method: In addition to the MTT assay, cell viability was measured by the Sulphorodamine B assay according to Vichai and Kirtikara. The MCF-7 and MDA-MB-23 cells were seeded and treated as for the MTT assay. After incubation the medium was removed and the cells were fixed with cold (4°C) trichloroacetic acid (final concentration 10%) for 1h. Than plates were washed 4 times with water and stained for 30 min, following by staining with sulforhodamine B (SRB) 0.4% in 1% acetic acid solution at room temperature for 20 min. After staining, the SRB solution was removed and the plates washed 5 times with 1% acetic acid dried. Bound SRB was solubilized with 200 μl 10 mM unbuffered Tris-base solution and plates were shaked for 10 min. The absorbance at 510 nm was measured using a plate reader (Biotek Instruments, Elx-800).

MCF-7 cells [3] = experiment: LDH release assay, MCF-7; type: cell-based, human; details: 72 h, Fig 2
Method: Cytotoxicity was evaluated by measuring the cell membrane permeability, using a LDH assay kit purchased from Cayman Chemical (Ann Arbor USA). The LDH assay was performed for MCF-7 and MDA-MB-231 cells (seeded at 2×10^4 density). As a positive control cell permeabilization with 1%Triton X-100 was used. The assay was performed 72h after start the incubation. Briefly, the plates were centrifuged at 400 ×g for 5 minutes, and 100 μL of supernatant were transferred from each well to the new 96-well plate and analyzed according to the manufacturer’s protocol. 100 μL of reaction mixture, containing lactic acid, NAD^+, tetrazolium salt and diaphorase, was added to each well. Plates were incubated on an orbital shaker for 30 minutes at room temperature and the absorbance at 490 nm was measured with a plate reader (Biotek Instruments, Elx-800). Results were expressed as a percentage of the total value of the positive control.

SMILES	IC50 at 72 h (MTT assay, MCF-12A)	IC50 (MCF-7 cells [1])	IC50 (MDA-MB-231 cells)	IC50 at 72 h (MTT assay, CCD39Lu)	IC50 (A549 cells)	Activity in MTT assay (in words), MCF-7 (MCF-7 cells [1])	Toxicity/effect in MTT assay (in words), MDA-MB-231 (MDA-MB-231 cells; 72 h)	ER dependent transcriptional activity (human ERα receptor)	Effect in SRB assay, MCF-7 (MCF-7 cells [2])	LDH release, MCF-7 (MCF-7 cells [3])
O=C(Nc1ccccc1C(=O)Nc1cc(F)c(F)c(F)c1)c1cc(F)c(F)c(F)c1 [Compound 9]	> 100 µM	> 100 µM	> 100 µM	> 100 µM	> 100 µM	–	–	–	–	–
Fc1cc(NC(=S)c2ccccc2NC(=S)c2cc(F)c(F)c(F)c2)cc(F)c1F [Compound 10]	1.22 µM	0.37 µM	0.52 µM	0.76 µM	0.41 µM	significant activity	significant degree of toxicity	–	–	–
O=C(Nc1cc(F)c(F)c(F)c1F)c1ccccc1NC(=O)c1cc(F)c(F)c(F)c1F [Compound 12]	> 100 µM	> 100 µM	40.1 µM	61.4 µM	> 100 µM	–	–	did not stimulate ER dependent transcriptional activity	–	–
COc1cc(NC(=S)c2ccccc2NC(=S)c2cc(OC)c(OC)c(OC)c2)cc(OC)c1OC [Compound 13]	> 100 µM	> 100 µM	> 100 µM	> 100 µM	> 100 µM	–	–	–	–	–
COc1ccc(NC(=S)c2cccc(NC(=S)c3ccc(OC)cc3)c2)cc1 [Compound 15]	> 100 µM	17.7 µM	> 100 µM	> 100 µM	> 100 µM	significant activity; also recorded: strong effect	–	capable to mediate ER dependent transcriptional activity in a similar mode than estradiol	strong effect	relatively low increase
COc1cc(NC(=S)c2ccc(NC(=S)c3cc(OC)c(OC)c(OC)c3)cc2)cc(OC)c1OC [Compound 16]	> 100 µM	69.8 µM	30 µM	6.48 µM	> 100 µM	–	–	did not stimulate ER dependent transcriptional activity	–	–
COc1ccc(NC(=O)c2ccc(NC(=O)c3ccc(OC)cc3)cc2)cc1 [Compound 17]	> 100 µM	> 100 µM	> 100 µM	> 100 µM	> 100 µM	–	–	–	–	–
COc1ccc(NC(=O)c2ccccc2NC(=O)COC(C)=O)cc1 [Compound 19]	> 100 µM	> 100 µM	> 100 µM	47.9 µM	72.4 µM	–	–	–	–	–
COc1cc(NC(=S)c2cccc(NC(=S)c3cc(OC)c(OC)c(OC)c3)c2)cc(OC)c1OC [Compound 20]	> 100 µM	> 100 µM	> 100 µM	> 100 µM	> 100 µM	–	–	–	–	–
